# From patent publication US9512139B2, “Conformationally constrained, fully synthetic macrocyclic compounds” (POLYPHOR AG, priority 2009, dated 2016)
# Like-named read-outs stand apart in the source and are kept apart here.
# Columns and labels:
# [1] = amide bond
# [2] = Metabolic stability assay, CD-1 mouse microsomes; assay type: in vitro ADME; settings: both, CD-1, mouse, microsomes, 10 µM
# in vitro [3] = assay type: in vitro ADME, human; settings: human, plasma, 10 µM
# in vitro [4] = assay type: in vitro ADME, mouse; settings: both, CD-1, mouse, plasma, 10 µM
# [5] = Metabolic stability assay, human microsomes; assay type: in vitro ADME; settings: both, human, microsomes, 10 µM
# 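Wherever Plasma Stability 240 min mouse [% remain.] is given: sodium citrate stabilized mouse plasma, parent compound quantified by HPLC/MS/MS relative to its peak area at time zero, run in triplicate.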
# 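Wherever Plasma Stability T½ [min] mouse is given: sodium citrate stabilized mouse plasma, parent compound quantified by HPLC/MS/MS relative to its peak area at time zero, run in triplicate.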
structure (smiles),measurement,setting,value
CN1CCCC[C@H](NC(=O)OCc2ccccc2)C(=O)N2C[C@@H](NC(=O)OC(C)(C)C)C[C@H]2COc2cncc(c2)C1=O,"ring closure, yield of all isomers","[1]; from CN(CCCC[C@H](NC(=O)OCc1ccccc1)C(=O)O)C(=O)c1cncc(OC[C@@H]2C[C@H](NC(=O)OC(C)(C)C)CN2)c1, T3P, CH2Cl2, 4.78 mM",79%
"CN1C[C@H](NC(=O)OCc2ccccc2)C(=O)N(C)CC(=O)N2C[C@@H](NC(=O)OC(C)(C)C)C[C@H]2COc2cncc(c2)C1=O [Ex. 272, benzyl N-[(4S,6S,13S)-6-[(tert-butoxycarbonyl)amino]-11,15-dimethyl-9,12,16-trioxo-2-oxa-8,11,15,19-tetraazatricyclo[15.3.1.0^4,8]henicosa-1(21),17,19-trien-13-yl]carbamate]",Metabolic Stability T½ [min] mouse,[2],> 60 min
same,Metabolic Stability 60 min mouse [% remain.],[2]; 1 h,81 % remain.
same,Plasma Stability T½ [min] hum,in vitro [3],> 240 min
same,Plasma Stability 240 min hum [% remain.],in vitro [3]; 4 h,95 % remain.
same,Plasma Stability T½ [min] mouse,in vitro [4],> 240 min
same,Plasma Stability 240 min mouse [% remain.],in vitro [4]; 4 h,92 % remain.
same,Metabolic Stability T½ [min] hum,[5],> 60 min
same,Metabolic Stability 60 min hum [% remain.],[5]; 1 h,65 % remain.
same,"ring closure, yield of all isomers","[1]; from CNCC(=O)N1C[C@@H](NC(=O)OC(C)(C)C)C[C@H]1COc1cncc(C(=O)N(C)C[C@H](NC(=O)OCc2ccccc2)C(=O)O)c1, T3P, i-Pr2NEt, CH2Cl2, 9.75 mM",38%
CN1CC(=O)N2C[C@H](NC(=O)OC(C)(C)C)C[C@H]2COc2ccsc2C(=O)N(C)[C@H](C(=O)OCc2ccccc2)CCC1=O,"ring closure, yield of all isomers","[1]; from CNCC(=O)N1C[C@H](NC(=O)OC(C)(C)C)C[C@H]1COc1ccsc1C(=O)N(C)[C@@H](CCC(=O)O)C(=O)OCc1ccccc1, T3P, CH2Cl2, 10.0 mM, 25.0 °C, 1.0 h",69%
CN1C(=O)c2cc(F)ccc2OC[C@@H]2C[C@H](NC(=O)OCC[Si](C)(C)C)CN2C(=O)CC[C@H]1C(=O)OCc1ccccc1,"ring closure, yield of all isomers","[1]; from CN(C(=O)c1cc(F)ccc1OC[C@@H]1C[C@H](NC(=O)OCC[Si](C)(C)C)CN1)[C@@H](CCC(=O)O)C(=O)OCc1ccccc1, T3P, CH2Cl2, 10.0 mM, 25.0 °C, 20.0 h",61%
CN1C[C@H](NC(=O)OCc2ccccc2)C(=O)N(C)CC(=O)N2C[C@@H](NC(=O)OCC[Si](C)(C)C)C[C@H]2COc2cccc(c2)C1=O,"ring closure, yield of all isomers","[1]; from CN(C[C@H](NC(=O)OCc1ccccc1)C(=O)N(C)CC(=O)O)C(=O)c1cccc(OC[C@@H]2C[C@H](NC(=O)OCC[Si](C)(C)C)CN2)c1, FDPP, DMF, 9.73 mM",63%
CN1C[C@H](NC(=O)OCc2ccccc2)C(=O)N(C)CC(=O)N2C[C@H](NC(=O)OCC[Si](C)(C)C)C[C@H]2COc2cccc(c2)C1=O,"ring closure, yield of all isomers","[1]; from CN(C[C@H](NC(=O)OCc1ccccc1)C(=O)N(C)CC(=O)O)C(=O)c1cccc(OC[C@@H]2C[C@@H](NC(=O)OCC[Si](C)(C)C)CN2)c1, FDPP, DMF, 10.16 mM",68%
CN1CCC[C@H](NC(=O)OCc2ccccc2)C(=O)N2C[C@@H](Oc3ccccc3)C[C@H]2COc2cccc(c2)C1=O,"ring closure, yield of all isomers","[1]; from CN(CCC[C@H](NC(=O)OCc1ccccc1)C(=O)O)C(=O)c1cccc(OC[C@@H]2C[C@H](Oc3ccccc3)CN2)c1, FDPP, DMF, 5.7 mM, 25.0 °C, 20.0 h",63%
CN1C(=O)c2cc(F)ccc2OC[C@@H]2CN(C(=O)OC(C)(C)C)CCN2C(=O)CC[C@H]1C(=O)OCc1ccccc1,"ring closure, yield of all isomers","[1]; from CN(C(=O)c1cc(F)ccc1OC[C@@H]1CN(C(=O)OC(C)(C)C)CCN1)[C@@H](CCC(=O)O)C(=O)OCc1ccccc1, T3P, CH2Cl2, 0.57 mM, 25.0 °C, 20.0 h",77%
CN1CC[C@H](NC(=O)OCc2ccccc2)C(=O)N2C[C@@H](NC(=O)OCC[Si](C)(C)C)C[C@H]2COc2cccc(c2)C1=O,"ring closure, yield of all isomers","[1]; from CN(CC[C@H](NC(=O)OCc1ccccc1)C(=O)O)C(=O)c1cccc(OC[C@@H]2C[C@H](NC(=O)OCC[Si](C)(C)C)CN2)c1, FDPP, DMF, 0.97 mM",43%
Cc1c2c3cc(ccc3n1C)OC[C@@H]1C[C@@H](NC(=O)OC(C)(C)C)CN1C(=O)CN(C)C(=O)CC[C@@H](C(=O)OCc1ccccc1)N(C)C2=O,"ring closure, yield of all isomers","[1]; from CNCC(=O)N1C[C@H](NC(=O)OC(C)(C)C)C[C@H]1COc1ccc2c(c1)c(C(=O)N(C)[C@@H](CCC(=O)O)C(=O)OCc1ccccc1)c(C)n2C, T3P, CH2Cl2, 9.85 mM",58%
CN1CC(=O)N2C[C@@H](NC(=O)OCC[Si](C)(C)C)C[C@H]2COc2cccc3c2C[C@@](NC(=O)OC(C)(C)C)(CC3)C(=O)N(C)C[C@H](NC(=O)OCc2ccccc2)C1=O,"ring closure, yield of all isomers","[1]; from CN(CC(=O)O)C(=O)[C@H](CN(C)C(=O)[C@]1(NC(=O)OC(C)(C)C)CCc2cccc(OC[C@@H]3C[C@H](NC(=O)OCC[Si](C)(C)C)CN3)c2C1)NC(=O)OCc1ccccc1, T3P, i-Pr2NEt, CH2Cl2, 10.0 mM, 2.0 h",44%
CN1CCC[C@H](NC(=O)OCc2ccccc2)C(=O)N2C[C@@H](Cc3ccccc3)C[C@H]2COc2cccc(c2)C1=O,"ring closure, yield of all isomers","[1]; from CN(CCC[C@H](NC(=O)OCc1ccccc1)C(=O)O)C(=O)c1cccc(OC[C@@H]2C[C@H](Cc3ccccc3)CN2)c1, T3P, CH2Cl2, 4.5 mM, 25.0 °C, 0.5 h",37%
CC(C)(C)OC(=O)N[C@@H]1C[C@H]2COc3ccc(Br)cc3C(=O)NC3(CCCC3)C(=O)N[C@@H](Cc3ccc4ccccc4c3)CC(=O)N2C1,"ring closure, yield of all isomers","[1]; from CC(C)(C)OC(=O)N[C@H]1CN[C@H](COc2ccc(Br)cc2C(=O)NC2(C(=O)N[C@H](CC(=O)O)Cc3ccc4ccccc4c3)CCCC2)C1, T3P, i-Pr2NEt, CH2Cl2, 1.0 mM, 25.0 °C, 2.0 h",68%
CN1CC(=O)N2C[C@H](NC(=O)OC(C)(C)C)C[C@H]2COc2ccc(F)cc2C(=O)N(C)[C@H](C(=O)OCc2ccccc2)CCC1=O,"ring closure, yield of all isomers","[1]; from CNCC(=O)N1C[C@H](NC(=O)OC(C)(C)C)C[C@H]1COc1ccc(F)cc1C(=O)N(C)[C@@H](CCC(=O)O)C(=O)OCc1ccccc1, T3P, CH2Cl2, 10.5 mM, 25.0 °C, 20.0 h",87%
CN1CCC[C@H](NC(=O)OCc2ccccc2)C(=O)N2C[C@@H](OCc3ccc(Br)cc3)C[C@H]2COc2cccc(c2)C1=O,"ring closure, yield of all isomers","[1]; from CN(CCC[C@H](NC(=O)OCc1ccccc1)C(=O)O)C(=O)c1cccc(OC[C@@H]2C[C@H](OCc3ccc(Br)cc3)CN2)c1, T3P, CH2Cl2, 5.5 mM, 25.0 °C, 20.0 h",57%
CC(C)(C)OC(=O)N[C@H]1C[C@H]2COc3cccc(c3)C(=O)NCCC[C@H](NC(=O)OCc3ccccc3)C(=O)N2C1,"ring closure, yield of all isomers","[1]; from CC(C)(C)OC(=O)N[C@@H]1CN[C@H](COc2cccc(C(=O)NCCC[C@H](NC(=O)OCc3ccccc3)C(=O)O)c2)C1, T3P, i-Pr2NEt, CH2Cl2, 5.37 mM",71%
CN1CC(=O)N2C[C@@H](NC(=O)OC(C)(C)C)C[C@H]2COc2ccc(F)cc2C(=O)N(C)[C@@H](C(=O)OCc2ccccc2)CCC1=O,"ring closure, yield of all isomers","[1]; from CNCC(=O)N1C[C@@H](NC(=O)OC(C)(C)C)C[C@H]1COc1ccc(F)cc1C(=O)N(C)[C@H](CCC(=O)O)C(=O)OCc1ccccc1, T3P / i-Pr2NEt, CH2Cl2, 10.8 mM",92%
O=C1NCCC[C@H](O)C(=O)N2C[C@@H](OCc3ccc(Br)cc3)C[C@H]2COc2cccc1c2,"ring closure, yield of all isomers","[1]; from O=C(NCCC[C@H](O)C(=O)O)c1cccc(OC[C@@H]2C[C@H](OCc3ccc(Br)cc3)CN2)c1, T3P, i-Pr2NEt, CH2Cl2, 1.0 mM",47%
O=C(N[C@H]1CCCNC(=O)c2cccc(c2)OC[C@@H]2C[C@H](Oc3ccccc3)CN2C1=O)OCc1ccccc1,"ring closure, yield of all isomers","[1]; from O=C(N[C@@H](CCCNC(=O)c1cccc(OC[C@@H]2C[C@H](Oc3ccccc3)CN2)c1)C(=O)O)OCc1ccccc1, HATU, HOAt, i-Pr2NEt, DMF, 0.98 mM, 25.0 °C, 20.0 h",88%
CN1CCC[C@H](NC(=O)OCc2ccccc2)C(=O)N2C[C@@H](OCc3ccc(Br)cc3)C[C@H]2CSc2cccc(c2)C1=O,"ring closure, yield of all isomers","[1]; from CN(CCC[C@H](NC(=O)OCc1ccccc1)C(=O)O)C(=O)c1cccc(SC[C@@H]2C[C@H](OCc3ccc(Br)cc3)CN2)c1, T3P, CH2Cl2, 1.96 mM, 25.0 °C, 3.0 h",79%
CN1CC(=O)N2CCN(C(=O)OC(C)(C)C)C[C@H]2COc2ccc(F)cc2C(=O)N(C)[C@H](C(=O)OCc2ccccc2)CCC1=O,"ring closure, yield of all isomers","[1]; from CN(CC(=O)O)C(=O)CC[C@@H](C(=O)OCc1ccccc1)N(C)C(=O)c1cc(F)ccc1OC[C@@H]1CN(C(=O)OC(C)(C)C)CCN1, T3P / i-Pr2NEt, CH2Cl2, 10.0 mM",90%
CN1C[C@H](NC(=O)OCc2ccccc2)C(=O)N(C)CC(=O)N2C[C@@H](NC(=O)OC(C)(C)C)C[C@H]2COc2cccc(c2)C1=O,"ring closure, yield of all isomers","[1]; from CNCC(=O)N1C[C@@H](NC(=O)OC(C)(C)C)C[C@H]1COc1cccc(C(=O)N(C)C[C@H](NC(=O)OCc2ccccc2)C(=O)O)c1, T3P / i-Pr2NEt, CH2Cl2, 0.96 mM",73%
same,"ring closure, yield of all isomers","[1]; from CNCC(=O)N1C[C@@H](NC(=O)OC(C)(C)C)C[C@H]1COc1cccc(C(=O)N(C)C[C@H](NC(=O)OCc2ccccc2)C(=O)O)c1, T3P / i-Pr2NEt, CH2Cl2, 1.0 mM",39%
CN1CC(=O)N2C[C@H](NC(=O)OC(C)(C)C)C[C@H]2COc2ccc(cc2)C(=O)N(C)[C@H](C(=O)OCc2ccccc2)CCC1=O,"ring closure, yield of all isomers","[1]; from CNCC(=O)N1C[C@H](NC(=O)OC(C)(C)C)C[C@H]1COc1ccc(C(=O)N(C)[C@@H](CCC(=O)O)C(=O)OCc2ccccc2)cc1, T3P, i-Pr2NEt, CH2Cl2, 1.05 mM, 3.0 h",54%
CN1C[C@@H](NC(=O)OCc2ccccc2)C(=O)N(C)CC(=O)N2C[C@@H](NC(=O)OC(C)(C)C)C[C@H]2COc2cccc(c2)C1=O,"ring closure, yield of all isomers","[1]; from CNCC(=O)N1C[C@@H](NC(=O)OC(C)(C)C)C[C@H]1COc1cccc(C(=O)N(C)C[C@@H](NC(=O)OCc2ccccc2)C(=O)O)c1, FDPP, DMF, 1.0 mM, 60.0 °C, 20.0 h",78%
